Here are results for 15 compounds from PubChem BioAssay (NCI).

Some test systems named below: SK-OV-3 ovarian; SN12C renal; U251 CNS; OVCAR-5 ovarian; SNB-19 CNS; COLO 205 colon; HS 578T breast; SNB-75 CNS; SW-620 colon; OVCAR-3 ovarian.
Assay in all cases: inhibition of tumour cell growth, NCI panel, 48 h

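96-well plates; 48 h exposure; 5 concentrations. Endpoints by linear interpolation between flanking doses. Not reached: highest tested concentration assigned. Here, GI50 denotes the concentration required for 50% inhibition of growth. The concentration for full growth arrest is given as TGI.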 Where a SMILES comes first, the peptide text is derived from it. Bridges are numbered along the chain shown (N, C = ends). Roman numbers before positions name the chains, in order. [ ]: non-standard residue; d: D form. The star is where a group is joined. Heptadecanoyl = CCCCCCCCCCCCCCCCC(=O)*; Phg = N[CH](C(=O)O)c1ccccc1

Take `CCC(C)(C)c1ccc(Oc2cccc(C(=O)O)c2)cc1`: the TGI with SK-OV-3 ovarian, with SN12C renal, in the assay with U251 CNS, in the assay on OVCAR-5 ovarian, in the assay on SNB-19 CNS and with COLO 205 colon was greater than 100 µM each time. Besides, the TGI with HS 578T breast was greater than 100 µM; in the assay with SNB-75 CNS, greater than 100 µM; in the assay on SW-620 colon, greater than 100 µM; in the assay on OVCAR-3 ovarian it was 70.1 µM.
Turning to `Cc1cccc(C(O)c2ccccn2)c1O` (stereo not given), the TGI with SN12C renal, with U251 CNS, in the assay with OVCAR-5 ovarian, in the assay on SNB-19 CNS, in the assay with COLO 205 colon and in the assay with HS 578T breast was greater than 100 µM throughout. Besides, the TGI in the assay on SNB-75 CNS, with SW-620 colon and in the assay on OVCAR-3 ovarian was greater than 100 µM throughout.
For `CO[C@H]1C[C@H](O[C@H]2CC[C@]3(C=O)[C@H]4CC[C@]5(C)[C@@H](C6=CC(=O)OC6)CC[C@]5(O)[C@@H]4CC[C@]3(O)C2)O[C@H](C)[C@H]1O[C@@H]1O[C@H](CO[C@@H]2O[C@H](CO)[C@@H](O)[C@H](O)[C@H]2O)[C@@H](O)[C@H](O)[C@H]1O`, the TGI was 0.21 µM in the assay on SK-OV-3 ovarian; 0.11 µM with SN12C renal; 0.202 µM with U251 CNS; 0.199 µM in the assay on OVCAR-5 ovarian; 0.83 µM in the assay on SNB-19 CNS; 0.348 µM with COLO 205 colon. Besides, the TGI in the assay with HS 578T breast is 0.518 µM; with SNB-75 CNS it was 0.437 µM; in the assay with SW-620 colon, 0.179 µM; in the assay with OVCAR-3 ovarian, 0.0809 µM.
`CC1=C/C(=C(/c2ccc(O)c(C)c2)c2ccccc2C(=O)O)C=CC1=O`: the TGI with SK-OV-3 ovarian came out at 35.1 µM; in the assay on SN12C renal it was 36.7 µM; in the assay on U251 CNS it was 32.1 µM; in the assay with OVCAR-5 ovarian it was 42.3 µM; in the assay with SNB-19 CNS, 32.2 µM; in the assay with COLO 205 colon, 34.3 µM. For the same compound, the TGI in the assay on HS 578T breast came out at 52 µM; in the assay with SNB-75 CNS, 35.8 µM; with SW-620 colon, 39 µM; in the assay on OVCAR-3 ovarian, 33.2 µM.
For the compound `N#CC(C#N)=Cc1ccc(-c2ccc(-c3nc4ccccc4s3)cc2)s1`, the GI50 was 19.7 µM in the assay with SK-OV-3 ovarian; 14.9 µM with U251 CNS; 14 µM in the assay with OVCAR-5 ovarian; 30 µM in the assay on SNB-19 CNS; 23.7 µM with COLO 205 colon; 37.5 µM in the assay with SNB-75 CNS. For the same compound, the GI50 in the assay with SW-620 colon was 19.8 µM; in the assay with OVCAR-3 ovarian, 14.9 µM. The TGI is 50.5 µM with SK-OV-3 ovarian; 31.9 µM in the assay with U251 CNS; 30.5 µM in the assay with OVCAR-5 ovarian; greater than 100 µM in the assay with SNB-19 CNS; greater than 100 µM in the assay on COLO 205 colon; greater than 100 µM in the assay with SNB-75 CNS. Besides, the TGI was greater than 100 µM in the assay with SW-620 colon and 34.8 µM with OVCAR-3 ovarian.
With `N.N.N.N.O=S(=O)([O-])[O-].[Co+3].[OH3+].[OH3+]`, the TGI with SK-OV-3 ovarian, in the assay on SN12C renal, in the assay with U251 CNS, in the assay with OVCAR-5 ovarian, with SNB-19 CNS and with COLO 205 colon was greater than 100 µM in each case. The TGI with SNB-75 CNS, in the assay on SW-620 colon and in the assay on OVCAR-3 ovarian was greater than 100 µM each time.
As to `CCOC(=O)c1cc(Cl)ccc1OC(N)=O`, the TGI in the assay with SK-OV-3 ovarian, in the assay with SN12C renal, in the assay on U251 CNS, in the assay on OVCAR-5 ovarian, in the assay with SNB-19 CNS and with COLO 205 colon was greater than 100 µM throughout. In addition, the TGI in the assay with SNB-75 CNS, in the assay on SW-620 colon and in the assay with OVCAR-3 ovarian was greater than 100 µM each time.
`O=C(CN1C(=O)c2ccccc2C1=O)OCC1CCCN2CCCCC12` (stereo not given): the TGI with SK-OV-3 ovarian, in the assay on SN12C renal, in the assay on U251 CNS, in the assay with SNB-19 CNS, in the assay with COLO 205 colon and with HS 578T breast was greater than 100 µM each time. Moreover, the TGI with SNB-75 CNS and in the assay on SW-620 colon was greater than 100 µM in each case.
As to `CN(C)C(=S)SCc1ccccc1`, the TGI in the assay with SK-OV-3 ovarian, with SN12C renal, in the assay on U251 CNS, with OVCAR-5 ovarian, with SNB-19 CNS and in the assay with COLO 205 colon was greater than 100 µM each time. Further, the TGI is greater than 100 µM with HS 578T breast, 70.3 µM in the assay with SNB-75 CNS, greater than 100 µM with SW-620 colon and greater than 100 µM in the assay with OVCAR-3 ovarian.
As to `C(=N/Nc1ccccn1)/c1cccnc1`, the TGI in the assay on SK-OV-3 ovarian, in the assay on SN12C renal, in the assay on U251 CNS, with OVCAR-5 ovarian, in the assay with SNB-19 CNS and in the assay on COLO 205 colon was greater than 100 µM each time. In addition, the TGI with HS 578T breast, in the assay on SNB-75 CNS, in the assay with SW-620 colon and with OVCAR-3 ovarian was greater than 100 µM each time.
Turning to `Clc1ccc(CSCc2ccc(Cl)cc2Cl)c(Cl)c1`, the TGI in the assay on SK-OV-3 ovarian, with SN12C renal, with U251 CNS, in the assay on OVCAR-5 ovarian, in the assay on SNB-19 CNS and with COLO 205 colon was greater than 100 µM each time. Further, the TGI is greater than 100 µM in the assay with HS 578T breast, 89 µM in the assay with SNB-75 CNS, greater than 100 µM in the assay with SW-620 colon and greater than 100 µM in the assay with OVCAR-3 ovarian.
As for `CC(C)(C)C1=NN=C2c3ccccc3C(=O)C21` (stereo not given), the TGI was greater than 100 µM in the assay with SN12C renal; greater than 100 µM in the assay with U251 CNS; greater than 100 µM with OVCAR-5 ovarian; greater than 100 µM with SNB-19 CNS; greater than 100 µM in the assay on COLO 205 colon; 82.1 µM in the assay on HS 578T breast. The TGI with SNB-75 CNS, in the assay on SW-620 colon and in the assay with OVCAR-3 ovarian was greater than 100 µM each time.
For the compound `C/C(=C\c1ccc2c(c1)OCO2)[N+](=O)[O-]`, the TGI is 15.9 µM in the assay on SN12C renal; 15.1 µM with OVCAR-5 ovarian; 6.98 µM with SNB-19 CNS; 4.2 µM in the assay on COLO 205 colon; 45.8 µM in the assay on HS 578T breast; 88.2 µM in the assay with SNB-75 CNS. This compound also returned a TGI in the assay on SW-620 colon greater than 100 µM.
Consider `O=C1c2ccc3ccccc3c2CCC1N1CCCCC1` (stereo not given), for which the TGI was determined as 54.4 µM in the assay on SK-OV-3 ovarian; 29 µM in the assay on SN12C renal; 33.1 µM in the assay on U251 CNS; 37.9 µM in the assay with OVCAR-5 ovarian; 40.8 µM in the assay with SNB-19 CNS; 42.1 µM in the assay on COLO 205 colon. Also, the TGI in the assay with HS 578T breast is 44.9 µM; in the assay with SNB-75 CNS, 34.3 µM; in the assay with SW-620 colon, 34.5 µM; in the assay on OVCAR-3 ovarian it was 28.8 µM.
`CCCCCCCCCCCCCCCCC(=O)N1CCCC1C(=O)NCC(=O)NC(C(=O)N1CCCC1C(=O)NC(CO)C(=O)NC(Cc1ccc(O)cc1)C(=O)NC(CCCCNC(=O)C1CCCN1C(=O)C(CCCCN)NC(=O)C(CCCCN)NC(=O)C(CCCCN)NC(=O)C(CCCNC(=N)N)NC(=O)C(CCCCN)NC(=O)C(N)C(C)C)C(=O)NC(CC(C)C)C(=O)NC(CCCNC(=N)N)C(=O)N1CCCC1C(=O)NCC(N)=O)c1ccccc1` (stereo not given) (I: Heptadecanoyl-PG[Phg]PSYKLRPG-NH2 / II: H-VKRKKKP; amide I:7-II:C; configuration not given here): the GI50 is 23.1 µM with SK-OV-3 ovarian; 12 µM in the assay on SN12C renal; 34.3 µM in the assay on OVCAR-5 ovarian; 31.2 µM in the assay with SNB-19 CNS; 4.75 µM with COLO 205 colon; greater than 100 µM in the assay with HS 578T breast. Besides, the GI50 is 54.2 µM in the assay with SNB-75 CNS, 40.5 µM in the assay with SW-620 colon and 27 µM in the assay on OVCAR-3 ovarian. Besides, the TGI in the assay on SK-OV-3 ovarian was 51.4 µM; in the assay on SN12C renal it was 27.7 µM; in the assay with OVCAR-5 ovarian, greater than 100 µM; with SNB-19 CNS it was 84.1 µM; in the assay with COLO 205 colon, 18.4 µM; in the assay with HS 578T breast, greater than 100 µM. Besides, the TGI is greater than 100 µM in the assay on SNB-75 CNS, greater than 100 µM in the assay with SW-620 colon and 71.2 µM in the assay with OVCAR-3 ovarian.
